{"source": "patent US8889638B2", "about": "“Stimulus-triggered prodrugs” (The Regents of the University of California, priority 2010, dated 2014)", "key": {"[1]": {"target": "T1, MMP-9 (catalytic domain, human, recombinant) (Homo sapiens, UniProt P14780)", "T1 construct": "MMP-9 (catalytic domain, human, recombinant); purchased BIOMOL International", "T1 sequence (P14780 107-444 limits assumed)": "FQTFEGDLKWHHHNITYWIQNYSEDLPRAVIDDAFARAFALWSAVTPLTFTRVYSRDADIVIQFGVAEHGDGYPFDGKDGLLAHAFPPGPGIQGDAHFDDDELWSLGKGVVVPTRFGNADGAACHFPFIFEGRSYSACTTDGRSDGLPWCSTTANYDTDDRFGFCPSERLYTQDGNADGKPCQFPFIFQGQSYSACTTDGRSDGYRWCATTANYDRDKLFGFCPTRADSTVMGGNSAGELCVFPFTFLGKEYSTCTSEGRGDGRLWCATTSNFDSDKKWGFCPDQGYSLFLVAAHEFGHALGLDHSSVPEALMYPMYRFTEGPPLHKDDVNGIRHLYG", "assay": "MMP-9 fluorescence-based inhibition assay with and without β-glucosidase", "assay_type": "biochemical", "experimental": "(§1) MMP-9 (catalytic domain, human, recombinant), MMP-8 (catalytic domain, human, recombinant), and the assay kit were purchased from BIOMOL International. The assays were carried out according to the procedure provided with the kit. MMP activity was measured in 96-well plates using a Bio-Tek Flx 800 fluorescent plate reader. The ZBGs and their protected analogs were dissolved in DMSO and diluted in HEPES buffer (50 mM, pH 7.5) to a concentration of 10 mM for 1-2, 40 mM for 3-4, and 1.25 mM for 5-6. Each well contained 20 μL, of MMP-9 (0.45 U/mL), inhibitor (10 μL, of 1-6), 5 μL, of β-glucosidase (1 U/μL) when used, and buffer for a total volume of 99 μL. These were incubated for 1 h at 37° C. […] The reaction was initiated by the addition of 1 μL (400 μM) of the fluorescent substrate (Mca-Pro-Leu-Gly-Leu-Dpa-Ala-Arg-NH2 where Mca=(7-methoxycoumarin-4-yl)-acetyl and Dpa=N-3-(2,4-dinitrophenyl)-L-α-β-diaminopropionyl)) and kinetic activity was measured every minute for 30 min with excitation and emission wavelengths at 335 nm and 405 nm, respectively. Enzyme activity with inhibitor was calculated with respect to the control experiment (no inhibitor present). Measurements were performed in duplicate in two independent experiments.\nFor Cmpds 7 and 8, 1 mL sample in HEPES buffer at a concentration of 1 mM was incubated at 37° C. with 250 U of β-glucosidase (1 U/μL) for 4 h giving a final concentration of 0.8 mM of the inhibitor. After 4 h, a 200 μL aliquot was collected and filtered through a microcentrifuge filter. UV-Vis absorption spectroscopy was to verify that the concentration of 1,2-HOPO-2 was 0.71±0.2 mM in each of the samples using the extinction coefficient for 1,2-HOPO-2 (7) calculated at 346 nm (4,279.3±372 M-1 cm-1). Each well was made up with 20 μL of MMP-9 (0.45 U/mL), inhibitor (2 μL, for 7 and 8), and buffer for a total volume of 99 μL. These were incubated for 30 min at 37° C. For MMP-8 inhibition assays, each of the samples was diluted to 1 μM in HEPES buffer and 15 μL of each were added to 20 μL of MMP-8 (0.092 U/mL) and buffer for a total of 99 μL. The reaction was initiated by the addition of 1 μL (400 μM) of the fluorescent substrate and kinetic activity was measured every minute for 30 min with excitation and emission wavelengths at 335 nm and 405 nm, respectively. Enzyme activity with inhibitor was calculated with respect to the control experiment (no inhibitor present). A control sample was also performed, in which an aliquot of 250 U of β-glucosidase (1 U/μL) with 1 mL of HEPES buffer was incubated for 4 h at 37° C., filtered through a microcentrifuge filter, and evaluated in the MMP assay to confirm that no inhibition is observed with β-glucosidase. Measurements were performed in duplicate in two independent experiments. […]"}, "[2]": {"target": "T2, MMP-8 (catalytic domain, human, recombinant) (Homo sapiens, UniProt P22894)", "T2 construct": "MMP-8 (catalytic domain, human, recombinant); purchased BIOMOL International", "T2 sequence (P22894 100-262 limits assumed)": "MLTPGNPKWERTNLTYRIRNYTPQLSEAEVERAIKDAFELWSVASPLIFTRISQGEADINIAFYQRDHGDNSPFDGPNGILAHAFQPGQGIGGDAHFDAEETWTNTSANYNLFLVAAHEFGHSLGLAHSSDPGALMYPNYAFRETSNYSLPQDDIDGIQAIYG", "assay": "MMP-8 fluorescence-based inhibition assay with and without β-glucosidase", "assay_type": "biochemical", "experimental": "as §1, with “Measurements were performed in duplicate in two independent experiments.” left out\nIC50 values were obtained for compounds 1-8 against MMP-9 and for compounds 7 and 8 against MMP-8. […] Enzyme activity with inhibitor was calculated with respect to the control experiment (no inhibitor present). […]"}}}
{"smiles": "O=C(NCc1ccc(-c2ccccc2)cc1)c1cccc(=O)n1O[C@@H]1O[C@H](CO)[C@@H](O)[C@H](O)[C@H]1O", "note": "[Compound 8, N-(Biphenyl-4-ylmethyl)-6-oxo-1-(β-D-glucopyranosyloxy)-1,6-dihydropyridine-2-carboxamide]", "values": [{"measurement": "inhibition at 16 µM", "setting": "[1]; 16 μM, read-out: MMP-9 activity inhibited upon activation with β-glucosidase", "value": 73, "unit": "%"}, {"measurement": "inhibition of MMP-9 in the absence of β-glucosidase", "setting": "[1]; 1 mM for 2, 4 mM for 4, 125 μM for 6, 16 μM for 8", "value": "very little inhibition"}, {"measurement": "inhibition at 0.15 µM", "setting": "[2]; 150 nM, read-out: inhibition of MMP-8 after activation with β-glucosidase", "value": 33, "unit": "%"}, {"measurement": "increase in activity upon enzymatic activation", "setting": "[2]; MMP-8, with vs without β-glucosidase", "value": "> 1000", "unit": "fold"}]}
